According to publication PMC4470081, “Characterization of glutathione transferases involved in the pathogenicity of Alternaria brassicicola” (BMC Microbiology, 2015):

Legend:
Type in all cases: biochemical, Alternaria brassicicola
AbUre2pB1 [1] = system: T1, AbUre2pB1; test: GSH transferase, absorbance […] nm; details: 3 mM GSH (table note; methods say 5 mM), phosphate pH 7.5
T1 construct: E. coli BL21(DE3) pRARE

AbGSTFuA1 [2] = system: T2, AbGSTFuA1; test: GSH transferase, absorbance […] nm; details: 3 mM GSH (table note; methods say 5 mM), phosphate pH 7.5
T2 construct: E. coli BL21(DE3) pRARE

AbGTT1.2 [3] = system: T3, AbGTT1.2; test: GSH transferase, absorbance […] nm; details: 3 mM GSH (table note; methods say 5 mM), phosphate pH 7.5
T3 construct: E. coli BL21(DE3) pRARE

AbGTT1.2 [4] = system: T3, AbGTT1.2; test: peroxidase, glutathione reductase/NADPH coupled, […] nm; details: 3 mM GSH (table note; methods say 2 mM), Tris-HCl pH 8.0
AbUre2pB1 [5] = system: T1, AbUre2pB1; test: as above; details: 3 mM GSH (table note; methods say 2 mM), Tris-HCl pH 8.0
AbGSTFuA1 [6] = system: T2, AbGSTFuA1; test: GSH transferase, absorbance […] nm; details: 3 mM GSH (table note; methods say 5 mM), pH 6.5

O=[N+]([O-])c1ccc(Cl)c([N+](=O)[O-])c1 [CDNB, 1-chloro-2,4-dinitrobenzene]
Km (AbUre2pB1 [1]): 5010 ± 400 µM | Km (AbGSTFuA1 [2]): 400 ± 20 µM | Km (AbGTT1.2 [3]): 1820 ± 330 µM

CC(C)(OO)c1ccccc1 [Cu-OOH]
Km (AbGTT1.2 [4]): 120 ± 40 µM | Km (AbUre2pB1 [5]): 770 ± 60 µM

C=CCN=C=S [Al-ITC]
Km (AbGSTFuA1 [6]): 120 ± 20 µM

S=C=NCCc1ccccc1 [Ph-ITC]
Km (AbGSTFuA1 [6]): 110 ± 20 µM

S=C=NCc1ccccc1 [Bz-ITC]
Km (AbGSTFuA1 [6]): 180 ± 30 µM
